In BigSolDB 2.1:

Clc1ccc2c(Cl)ccnc2c1
Conditions	solubility (mole fraction)
in THF, 299.4 K	0.0683
in THF, 303.2 K	0.0701
in THF, 309.1 K	0.0745
in THF, 313.3 K	0.081
in THF, 318.1 K	0.0887
in THF, 323.2 K	0.1
in THF, 328.3 K	0.119
in THF, 333.4 K	0.14
in acetone, 299.2 K	0.0591
in acetone, 303.2 K	0.0614
in acetone, 309.1 K	0.0658
in acetone, 313.3 K	0.0725
in acetone, 318.1 K	0.0818
in acetone, 323.2 K	0.0954
in acetone, 328.3 K	0.113
in acetonitrile, 299.8 K	0.00603
in acetonitrile, 303.2 K	0.00814
in acetonitrile, 308.1 K	0.0127
in acetonitrile, 313.3 K	0.0208
in acetonitrile, 318.1 K	0.0307
in acetonitrile, 323.2 K	0.0489
in acetonitrile, 328.3 K	0.0788
in acetonitrile, 333.4 K	0.13
in ethanol, 299.8 K	0.0113
in ethanol, 303.2 K	0.0145
in ethanol, 308.1 K	0.0224
in ethanol, 313.3 K	0.0364
in ethanol, 318.1 K	0.0564
in ethanol, 323.2 K	0.0886
in ethanol, 328.3 K	0.135
in ethanol, 333.4 K	0.208
in water, 298 K	2.84e-05
in water, 303.3 K	2.9e-05
in water, 308.2 K	3.01e-05
in water, 313.1 K	3.21e-05
in water, 318.3 K	3.45e-05
in water, 323.3 K	3.88e-05
in water, 327.7 K	4.2e-05
in water, 333.3 K	4.85e-05
